Experimental data reported in patent US20260041640A1 (INCYCLIX BIO, LLC, priority 2023, published 2026).
“And” between values parts separate entries of the source, which are not always exact repeats. Equal entries are not always repeated. Where two headings read alike, the source gives them in different places.

Assay: First-in-human clinical study: plasma and whole blood PK of INX-315 (oral QD, ASD tablet)
Assay type: in vivo
Description: All INX-315 tablets were taken at approximately the same time(s) each day.
Samples will also be collected pre-dose on Cycle 1 Days 2, 8, 16, and Day 22, and pre-dose on Day 1 of each subsequent cycle.
Standard non-compartmental PK parameters were estimated.
Geometric mean and geometric CV % will be included in the summary statistics.
PK parameters will be summarized descriptively by dosing cohort. AUC and Cmax values will also be presented in scatter plots. Dose proportionality will be assessed for AUC and Cmax using a power model. The 90% CI of the slope for each PK parameter will be estimated from the model and presented in a summary table.
Cohort 1 enrollment of 6 subjects dosed at 100 mg oral QD was completed in October of 2023.
Patients were upgraded to the 200 mg QD dose level and PK/PD plasma parameters were measured (FIG. 18A).
Patients were administered the 200 mg QD and 300 mg QD dose levels and PK/PD plasma parameters were measured.

[1] = plasma, 100 mg QD cohort, Day 1, individual subjects
[2] = plasma, 100 mg QD cohort, Day 1, median
[3] = plasma, 100 mg QD cohort, Day 15, individual subjects
[4] = plasma, 100 mg QD cohort, Day 15, median
[5] = plasma, 100 mg QD, Day 1, individual patients
[6] = plasma, 100 mg QD, Day 15, individual patients
[7] = plasma, 200 mg QD, Day 1, Cohort 2
[8] = plasma, 200 mg QD, Day 1, individual subjects
[9] = plasma, 200 mg QD, Day 15, Cohort 2
[10] = plasma, 200 mg QD, Day 15, individual subjects
[11] = plasma, 300 mg QD cohort, Day 1, individual subjects
[12] = plasma, 300 mg QD cohort, Day 1, median
[13] = plasma, 300 mg QD cohort, Day 15, individual subjects
[14] = whole blood, 100 mg QD, Day 1, individual patients
[15] = whole blood, 100 mg QD, Day 15, individual patients

SMILES: NS(=O)(=O)c1ccc(Nc2ncc3cc4n(c3n2)C2(CCCCC2)C(=O)NN4)cc1 [INX-315]
- Tmax (human, plasma, po, 100 mg, plasma, 100 mg QD cohort, Day 1, median, read-out: Tmax, Median): 4 h
- half-life (human, plasma, po, 100 mg, plasma, 100 mg QD cohort, Day 1, median, read-out: t1/2, Median (converted)): 15.6 h
- AUC(0-t) (human, plasma, po, 100 mg, plasma, 100 mg QD cohort, Day 15, geometric mean, read-out: AUClast, Geometric Mean): 3290 ng·h/mL
- Cmax (human, plasma, po, 100 mg, plasma, 100 mg QD cohort, Day 15, geometric mean, read-out: Cmax, Geometric Mean): 211 ng/mL
- half-life (human, plasma, po, 100 mg, plasma, 100 mg QD cohort, Day 15, individual subjects, read-out: t1/2 (converted)): 17.6 h
- AUC(0-t) (human, plasma, po, 100 mg, plasma, 100 mg QD cohort, Day 15, median, read-out: AUClast, Median): 3120 ng·h/mL
- Cmax (human, plasma, po, 100 mg, plasma, 100 mg QD cohort, Day 15, median, read-out: Cmax, Median): 217 ng/mL
- Tmax (human, plasma, po, 100 mg, plasma, 100 mg QD cohort, Day 15, median, read-out: Tmax, Median): 6 h
- half-life (human, whole blood, oral, 100 mg, preliminary data, first two patients, 100 mg QD, read-out: t1/2 (converted)): ≥ 15 h
- AUC(0-t) (human, whole blood, oral, 100 mg, whole blood, 100 mg QD, Day 1, Cohort 1 (Table 28), read-out: AUClast, geometric mean): 34700 ng·h/mL
- Cmax (human, whole blood, oral, 100 mg, whole blood, 100 mg QD, Day 1, Cohort 1 (Table 28), read-out: Cmax, geometric mean): 2280 ng/mL
- Tmax (human, whole blood, oral, 100 mg, whole blood, 100 mg QD, Day 1, Cohort 1 (Table 28), read-out: Tmax, median): 6 h
- half-life (human, whole blood, oral, 100 mg, whole blood, 100 mg QD, Day 1, Cohort 1 (Table 28), read-out: t1/2, geometric mean (converted)): 17.9 h
- AUC (human, whole blood, oral, 100 mg, whole blood, 100 mg QD, Day 1 observed, mean of first two patients, read-out: AUC): 50600 ng·h/mL
- Cmax (human, whole blood, oral, 100 mg, whole blood, 100 mg QD, Day 1 observed, mean of first two patients, read-out: Cmax): 3000 ng/mL
- AUC(0-t) (human, whole blood, oral, 100 mg, whole blood, 100 mg QD, Day 15, Cohort 1 (Table 28), read-out: AUClast, median): 62700 ng·h/mL
- Cmax (human, whole blood, oral, 100 mg, whole blood, 100 mg QD, Day 15, Cohort 1 (Table 28), read-out: Cmax, median): 3580 ng/mL
- Tmax (human, whole blood, oral, 100 mg, whole blood, 100 mg QD, Day 15, Cohort 1 (Table 28), read-out: Tmax, median): 6 h
- half-life (human, whole blood, oral, 100 mg, whole blood, 100 mg QD, Day 15, individual patients, read-out: t1/2 (converted)): 21.6 h
- AUC (human, whole blood, oral, 100 mg, whole blood, 100 mg QD, Day 15 observed, mean of first two patients, read-out: AUC): 116000 ng·h/mL
- Cmax (human, whole blood, oral, 100 mg, whole blood, 100 mg QD, Day 15 observed, mean of first two patients, read-out: Cmax): 5440 ng/mL
- AUC (human, whole blood, oral, 200 mg, Cohort 2 (200 mg QD), Day 1, individual subjects, read-out: AUC Whole Blood): 96600 ng·h/mL
- AUC (human, whole blood, oral, 300 mg, Cohort 3 (300 mg QD), Day 1, individual subjects, read-out: AUC Whole Blood): 134000 ng·h/mL
- AUC (human, whole blood, oral, 300 mg, Cohort 3 (300 mg QD), Day 15, Tlast = 6 hours, read-out: AUC Whole Blood): 43900 ng·h/mL
- AUC (human, whole blood, oral, 300 mg, Cohort 3 (300 mg QD), Day 15, individual subjects, read-out: AUC Whole Blood): 86400 ng·h/mL
- Clast, geometric mean (plasma, 100 mg QD cohort, Day 1, geometric mean): 48.7 ng/mL
- AUClast [1]: 2410 ng·h/mL and 1840 ng·h/mL and 3300 ng·h/mL and 2160 ng·h/mL and 3360 ng·h/mL and 633 ng·h/mL
- Clast [1]: 42.3 ng/mL and 50.7 ng/mL and 85.2 ng/mL and 31.9 ng/mL and 114 ng/mL and 20 ng/mL
- Cmax [1]: 320 ng/mL and 109 ng/mL and 197 ng/mL and 43.8 ng/mL
- Tlast [1]: 24 h
- Clast, median [2]: 46.5 ng/mL
- Tlast, Median [2]: 24 h
- Clast, geometric mean (plasma, 100 mg QD cohort, Day 15, geometric mean): 90.6 ng/mL
- AUClast [3]: 6840 ng·h/mL and 1930 ng·h/mL and 1640 ng·h/mL and 5700 ng·h/mL
- Clast [3]: 188 ng/mL and 65.4 ng/mL and 63.1 ng/mL and 154 ng/mL and 51.2 ng/mL
- Cmax [3]: 424 ng/mL and 96.4 ng/mL and 344 ng/mL
- Tlast [3]: 24 h
- t1/2 [3]: 16.0 h
- Clast, median [4]: 65.4 ng/mL
- Tlast, Median [4]: 24 h
- dose proportionality of exposure (AUC) (plasma, 100 mg QD versus 200 mg QD): dose-proportional increase in exposure (or greater)
- dose proportionality of exposure (plasma, 100 mg QD versus 200 mg QD and 300 mg QD): dose-proportional increase in exposure (or greater)
- Clast, geometric mean (plasma, 100 mg QD, Day 1, Cohort 1 (Table 27)): 61.4 ng/mL
- AUClast [5]: 3410 ng·h/mL and 2160 ng·h/mL and 2510 ng·h/mL and 1990 ng·h/mL
- Clast [5]: 119 ng/mL and 86.3 ng/mL and 33.9 ng/mL and 43.9 ng/mL and 57.0 ng/mL
- Cmax [5]: 194 ng/mL and 197 ng/mL and 179 ng/mL and 326 ng/mL and 119 ng/mL
- Tlast [5]: 24 h
- t1/2 [5]: 8.88 h and 11.5 h and 16.7 h
- AUClast [6]: 5920 ng·h/mL
- Clast [6]: 199 ng/mL and 155 ng/mL
- Cmax [6]: 358 ng/mL
- Tlast [6]: 24 h
- t1/2 [6]: 15.2 h
- Clast, geometric mean [7]: 223 ng/mL
- Clast, median [7]: 261 ng/mL
- Tlast, Median [7]: 24 h
- AUClast [8]: 7300 ng·h/mL and 11300 ng·h/mL and 19100 ng·h/mL and 4540 ng·h/mL
- Clast [8]: 212 ng/mL and 291 ng/mL and 487 ng/mL and 69.7 ng/mL and 261 ng/mL
- Cmax [8]: 444 ng/mL and 800 ng/mL and 1140 ng/mL and 305 ng/mL
- Tlast [8]: 24 h
- Clast, geometric mean [9]: 263 ng/mL
- Clast, median [9]: 320 ng/mL
- Tlast, Median [9]: 24 h
- AUClast [10]: 6560 ng·h/mL and 14300 ng·h/mL and 18100 ng·h/mL and 13200 ng·h/mL
- Clast [10]: 88.8 ng/mL and 324 ng/mL and 521 ng/mL and 317 ng/mL
- Cmax [10]: 1230 ng/mL and 997 ng/mL and 758 ng/mL
- Tlast [10]: 24 h
- t1/2 [10]: 10.5 h and 14.3 h
- Clast, geometric mean (plasma, 300 mg QD cohort, Day 1, geometric mean): 213 ng/mL
- AUClast [11]: 7590 ng·h/mL and 11000 ng·h/mL and 8080 ng·h/mL and 11500 ng·h/mL
- Clast [11]: 148 ng/mL and 135 ng/mL and 303 ng/mL and 219 ng/mL and 331 ng/mL
- Cmax [11]: 550 ng/mL and 490 ng/mL and 812 ng/mL
- Tlast [11]: 24 h
- t1/2 [11]: 16.2 h
- Clast, median [12]: 219 ng/mL
- Tlast, Median [12]: 24 h
- AUClast [13]: 4430 ng·h/mL
- Clast [13]: 96.8 ng/mL and 359 ng/mL
- Cmax [13]: 840 ng/mL
- Tlast [13]: 24 h and 8 h
- Tmax [13]: 0.5 h
- t1/2 [13]: 5.80 h
- factor by which observed AUC exceeded the model (whole blood, 100 mg QD, Day 1): 9 ×
- Clast, geometric mean (whole blood, 100 mg QD, Day 1, Cohort 1 (Table 28)): 956 ng/mL
- AUClast [14]: 60500 ng·h/mL and 40600 ng·h/mL and 37800 ng·h/mL and 32500 ng·h/mL and 13400 ng·h/mL and 43600 ng·h/mL
- Clast [14]: 1840 ng/mL and 1020 ng/mL and 1180 ng/mL and 719 ng/mL and 502 ng/mL and 954 ng/mL
- Cmax [14]: 3430 ng/mL and 2570 ng/mL and 2110 ng/mL and 2710 ng/mL and 805 ng/mL and 3470 ng/mL
- Tlast [14]: 24 h
- t1/2 [14]: 22.4 h and 13.9 h and 20.5 h and 14.5 h and 27.4 h and 12.8 h
- Cmin (whole blood, 100 mg QD, Day 1 observed, mean of first two patients): 1430 ng/mL
- Clast, median (whole blood, 100 mg QD, Day 15, Cohort 1 (Table 28)): 1670 ng/mL
- AUClast [15]: 117000 ng·h/mL and 31400 ng·h/mL
- Clast [15]: 3220 ng/mL and 1670 ng/mL and 891 ng/mL
- Cmax [15]: 7290 ng/mL and 1820 ng/mL
- Tlast [15]: 24 h
- t1/2 [15]: 18.3 h
- Cmin (whole blood, 100 mg QD, Day 15 observed, mean of first two patients): 2445 ng/mL
- Total Area (whole blood, 100 mg QD, d 1, Patients 1 and 2): 60740 and 41732
- Total Area (whole blood, 100 mg QD, d 15, Patients 1 and 2): 118285 and 65180
